# The source made the active and inactive calls. No cut-off for these calls is given here.
# Assays:
# [1] = molecular target: Serine/threonine-protein kinase PknB (Mycobacterium tuberculosis) (UniProt P9WI81); assay: Inhibition of Mycobacterium tuberculosis PknB assessed as remaining activity at 1 uM by Kinome scan method relative to control
# [2] = tested on: Receptor-type tyrosine-protein kinase FLT3 (Homo sapiens), P36888 [N841I]; assay: Inhibition of FLT3 N841I mutant (unknown origin) assessed as remaining activity at 1 uM by Kinome scan method relative to control
# [3] = Inhibition of PI3K/AKT/mTOR signalling pathway in human RV-1 cells assessed as decrease in AKT phosphorylation at S473 residue at 2.5 uM incubated for 4 hrs by immunoblot analysis; type: cell-based
# [4] = tested on: BaF3; assay: Antiproliferative activity against mouse BaF3 cells expressing TEL-fused JAK2 assessed growth inhibition incubated for 2 to 5 days by CellTiter-Glo assay; type: functional; details: time 2-5 day
# [5] = molecular target: AP2-associated protein kinase 1 (Homo sapiens) (UniProt Q2M2I8); assay: Inhibition of AAK1 (unknown origin) assessed as remaining activity at 1 uM by Kinome scan method relative to control
# [6] = molecular target: Inhibitor of nuclear factor kappa-B kinase subunit beta (Homo sapiens) (UniProt O14920); assay: Inhibition of IKK-beta (unknown origin) assessed as remaining activity at 1 uM by Kinome scan method relative to control
# [7] = molecular target: Citron Rho-interacting kinase (Homo sapiens) (UniProt O14578); assay: Inhibition of CIT (unknown origin) assessed as remaining activity at 1 uM by Kinome scan method relative to control
# [8] = molecular target: Megakaryocyte-associated tyrosine-protein kinase (Homo sapiens) (UniProt P42679); assay: Inhibition of CTK (unknown origin) assessed as remaining activity at 1 uM by Kinome scan method relative to control
# [9] = molecular target: Activin receptor type-1B (Homo sapiens) (UniProt P36896); assay: Inhibition of ACVR1B (unknown origin) assessed as remaining activity at 1 uM by Kinome scan method relative to control
# [10] = molecular target: Phosphatidylinositol 4,5-bisphosphate 3-kinase catalytic subunit alpha isoform (Homo sapiens) (UniProt P42336); assay: Inhibition of PIK3CA (unknown origin) assessed as remaining activity at 1 uM by Kinome scan method relative to control
# [11] = molecular target: MAP/microtubule affinity-regulating kinase 3 (Homo sapiens) (UniProt P27448); assay: Inhibition of MARK3 (unknown origin) assessed as remaining activity at 1 uM by Kinome scan method relative to control
# [12] = molecular target: Interleukin-1 receptor-associated kinase 1 (Homo sapiens) (UniProt P51617); assay: Inhibition of IRAK1 (unknown origin) assessed as remaining activity at 1 uM by Kinome scan method relative to control
# [13] = molecular target: Casein kinase I isoform delta (Homo sapiens) (UniProt P48730); assay: Inhibition of CSNK1D (unknown origin) assessed as remaining activity at 1 uM by Kinome scan method relative to control
# [14] = molecular target: Serine/threonine-protein kinase PAK 1 (Homo sapiens) (UniProt Q13153); assay: Inhibition of PAK1 (unknown origin) assessed as remaining activity at 1 uM by Kinome scan method relative to control
# [15] = molecular target: BDNF/NT-3 growth factors receptor (Homo sapiens) (UniProt Q16620); assay: Inhibition of TRKB (unknown origin) assessed as remaining activity at 1 uM by Kinome scan method relative to control
# [16] = tested on: Phosphatidylinositol 4,5-bisphosphate 3-kinase catalytic subunit alpha isoform (Homo sapiens), P42336 [H1047Y]; assay: Inhibition of PIK3CA H1047Y mutant (unknown origin) assessed as remaining activity at 1 uM by Kinome scan method relative to control
# [17] = molecular target: Mitogen-activated protein kinase kinase kinase 7 (Homo sapiens) (UniProt O43318); assay: Inhibition of TAK1 (unknown origin) assessed as remaining activity at 1 uM by Kinome scan method relative to control
# [18] = molecular target: Serine/threonine-protein kinase 4 (Homo sapiens) (UniProt Q13043); assay: Inhibition of MST1 (unknown origin) assessed as remaining activity at 1 uM by Kinome scan method relative to control
# [19] = molecular target: Cytoplasmic tyrosine-protein kinase BMX (Homo sapiens, UniProt P51813); assay: Inhibition of Flag-tagged BMX (unknown origin) expressed in HEK293T cells pre incubated for 30 mins followed by ATP addition and measured after 20 mins by immunoprecipitate assay; type: cell-based
# [20] = Inhibition of PI3K/AKT/mTOR signalling pathway in human RV-1 cells assessed as decrease in S6K phosphorylation at T389 residue at 2.5 uM incubated for 5 days in presence of MK2206 by immunoblot analysis; type: cell-based; details: time 5.0 day
# [21] = Inhibition of PI3K/AKT/mTOR signalling pathway in human RV-1 cells assessed as decrease in AKT phosphorylation at T308 residue at 2.5 uM incubated for 5 days by immunoblot analysis; type: cell-based; details: time 5.0 day
# [22] = Induction of cell cycle arrest in human RV-1 cells assessed as accumulation of cells at S phase at 2.5 uM incubated for 5 days in presence of MK2206 by propidium iodide staining based flow cytometric analysis (reference value: 28.9 %); type: functional; details: time 5 day
# [23] = molecular target: Receptor-interacting serine/threonine-protein kinase 1 (Homo sapiens) (UniProt Q13546); assay: Inhibition of RIPK1 (unknown origin) assessed as remaining activity at 1 uM by Kinome scan method relative to control
# [24] = molecular target: Mitogen-activated protein kinase kinase kinase 20 (Homo sapiens) (UniProt Q9NYL2); assay: Inhibition of ZAK (unknown origin) assessed as remaining activity at 1 uM by Kinome scan method relative to control
# [25] = molecular target: Serine/threonine-protein kinase RIO1 (Homo sapiens) (UniProt Q9BRS2); assay: Inhibition of RIOK1 (unknown origin) assessed as remaining activity at 1 uM by Kinome scan method relative to control
# [26] = molecular target: Serine/threonine-protein kinase PAK 5 (Homo sapiens) (UniProt Q9P286); assay: Inhibition of PAK7 (unknown origin) assessed as remaining activity at 1 uM by Kinome scan method relative to control
# [27] = molecular target: Serine/threonine-protein kinase DCLK3 (Homo sapiens) (UniProt Q9C098); assay: Inhibition of DCAMKL3 (unknown origin) assessed as remaining activity at 1 uM by Kinome scan method relative to control
# [28] = molecular target: Phosphatidylinositol 4-kinase beta (Homo sapiens) (UniProt Q9UBF8); assay: Inhibition of PIK4CB (unknown origin) assessed as remaining activity at 1 uM by Kinome scan method relative to control
# [29] = molecular target: Cyclin-dependent kinase 7 (Homo sapiens) (UniProt P50613); assay: Inhibition of CDK7 (unknown origin) assessed as remaining activity at 1 uM by Kinome scan method relative to control
# [30] = molecular target: Tyrosine-protein kinase Lyn (Homo sapiens) (UniProt P07948); assay: Inhibition of LYN (unknown origin) assessed as remaining activity at 1 uM by Kinome scan method relative to control
# [31] = Down regulation of BMX protein expression in human RV-1 cells expressing BMX C496S mutant assessed protein expression level at 2.5 uM pre incubated for 4 hrs followed by compound wash out and additon of CHX and measured after 24 hrs by immunoblot analysis (reference value: 1.01 to 1.13); type: functional
# Chain of Serine/threonine-protein kinase PAK 1 (Homo sapiens) (Q13153 whole entry): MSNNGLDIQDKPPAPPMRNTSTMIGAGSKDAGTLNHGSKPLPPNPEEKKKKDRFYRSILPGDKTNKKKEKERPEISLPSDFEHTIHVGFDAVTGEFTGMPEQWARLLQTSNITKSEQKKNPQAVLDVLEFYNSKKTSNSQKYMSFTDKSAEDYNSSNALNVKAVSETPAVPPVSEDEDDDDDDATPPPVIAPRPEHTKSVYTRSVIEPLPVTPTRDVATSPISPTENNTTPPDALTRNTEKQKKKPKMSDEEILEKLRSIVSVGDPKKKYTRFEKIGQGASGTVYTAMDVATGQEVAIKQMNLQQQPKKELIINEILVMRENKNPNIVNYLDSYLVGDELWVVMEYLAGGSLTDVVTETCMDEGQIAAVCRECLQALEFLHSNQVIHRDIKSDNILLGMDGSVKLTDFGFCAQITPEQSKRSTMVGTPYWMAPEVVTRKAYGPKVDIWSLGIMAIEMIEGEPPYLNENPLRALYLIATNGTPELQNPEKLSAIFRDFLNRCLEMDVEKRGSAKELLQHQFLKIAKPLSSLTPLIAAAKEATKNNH
# Chain of Cyclin-dependent kinase 7 (Homo sapiens) (P50613 whole entry): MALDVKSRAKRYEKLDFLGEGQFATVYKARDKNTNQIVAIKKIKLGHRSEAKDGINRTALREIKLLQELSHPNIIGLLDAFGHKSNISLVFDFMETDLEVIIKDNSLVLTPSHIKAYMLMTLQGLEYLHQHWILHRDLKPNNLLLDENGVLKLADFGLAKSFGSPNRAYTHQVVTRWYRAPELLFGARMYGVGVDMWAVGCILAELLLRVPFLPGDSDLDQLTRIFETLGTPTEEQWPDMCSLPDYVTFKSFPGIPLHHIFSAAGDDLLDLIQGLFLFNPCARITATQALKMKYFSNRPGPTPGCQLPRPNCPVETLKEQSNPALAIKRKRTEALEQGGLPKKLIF
# Chain of Casein kinase I isoform delta (Homo sapiens) (P48730 whole entry, looked up, canonical isoform): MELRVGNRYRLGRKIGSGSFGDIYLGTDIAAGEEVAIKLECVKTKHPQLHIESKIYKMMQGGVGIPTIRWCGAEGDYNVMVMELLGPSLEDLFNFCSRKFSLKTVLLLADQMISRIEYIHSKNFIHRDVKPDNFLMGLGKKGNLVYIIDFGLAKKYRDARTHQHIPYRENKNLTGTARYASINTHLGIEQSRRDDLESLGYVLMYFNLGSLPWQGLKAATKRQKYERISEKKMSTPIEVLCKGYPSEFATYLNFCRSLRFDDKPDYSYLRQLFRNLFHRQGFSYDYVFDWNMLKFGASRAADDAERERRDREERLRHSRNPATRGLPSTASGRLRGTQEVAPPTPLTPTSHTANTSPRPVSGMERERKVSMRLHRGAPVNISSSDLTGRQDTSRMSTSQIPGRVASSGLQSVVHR
# Chain of Activin receptor type-1B (Homo sapiens) (P36896 whole entry, canonical isoform): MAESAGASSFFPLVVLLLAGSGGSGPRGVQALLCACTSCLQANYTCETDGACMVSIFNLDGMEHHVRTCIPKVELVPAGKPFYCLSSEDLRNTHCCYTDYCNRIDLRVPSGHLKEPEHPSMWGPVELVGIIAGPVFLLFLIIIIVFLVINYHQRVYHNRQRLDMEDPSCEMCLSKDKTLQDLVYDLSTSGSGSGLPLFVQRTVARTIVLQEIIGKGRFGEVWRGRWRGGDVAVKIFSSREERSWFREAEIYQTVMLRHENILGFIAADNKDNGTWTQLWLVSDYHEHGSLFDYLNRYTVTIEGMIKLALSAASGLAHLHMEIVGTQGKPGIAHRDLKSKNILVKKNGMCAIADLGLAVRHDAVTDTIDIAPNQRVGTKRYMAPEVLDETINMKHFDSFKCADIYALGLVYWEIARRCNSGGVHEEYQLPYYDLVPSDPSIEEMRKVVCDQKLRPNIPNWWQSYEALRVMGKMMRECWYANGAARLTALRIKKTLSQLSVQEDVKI
# Chain of Receptor-interacting serine/threonine-protein kinase 1 (Homo sapiens) (Q13546 whole entry): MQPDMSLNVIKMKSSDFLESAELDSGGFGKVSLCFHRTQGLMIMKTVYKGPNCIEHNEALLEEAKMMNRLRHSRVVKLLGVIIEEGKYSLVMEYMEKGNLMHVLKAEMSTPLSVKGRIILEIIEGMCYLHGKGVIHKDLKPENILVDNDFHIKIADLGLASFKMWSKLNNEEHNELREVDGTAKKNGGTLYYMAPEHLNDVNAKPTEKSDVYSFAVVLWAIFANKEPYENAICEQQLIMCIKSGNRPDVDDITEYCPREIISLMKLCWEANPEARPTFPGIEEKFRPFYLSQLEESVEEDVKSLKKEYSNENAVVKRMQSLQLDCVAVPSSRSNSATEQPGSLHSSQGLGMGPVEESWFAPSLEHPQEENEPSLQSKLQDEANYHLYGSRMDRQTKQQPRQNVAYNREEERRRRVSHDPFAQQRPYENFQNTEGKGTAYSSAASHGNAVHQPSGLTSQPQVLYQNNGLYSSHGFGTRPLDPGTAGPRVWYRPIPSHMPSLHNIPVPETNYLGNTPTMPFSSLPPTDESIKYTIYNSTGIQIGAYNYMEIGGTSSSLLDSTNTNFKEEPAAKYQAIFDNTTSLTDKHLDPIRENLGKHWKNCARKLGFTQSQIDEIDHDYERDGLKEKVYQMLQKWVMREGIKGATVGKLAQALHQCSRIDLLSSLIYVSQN
# Chain of Inhibitor of nuclear factor kappa-B kinase subunit beta (Homo sapiens) (O14920 whole entry): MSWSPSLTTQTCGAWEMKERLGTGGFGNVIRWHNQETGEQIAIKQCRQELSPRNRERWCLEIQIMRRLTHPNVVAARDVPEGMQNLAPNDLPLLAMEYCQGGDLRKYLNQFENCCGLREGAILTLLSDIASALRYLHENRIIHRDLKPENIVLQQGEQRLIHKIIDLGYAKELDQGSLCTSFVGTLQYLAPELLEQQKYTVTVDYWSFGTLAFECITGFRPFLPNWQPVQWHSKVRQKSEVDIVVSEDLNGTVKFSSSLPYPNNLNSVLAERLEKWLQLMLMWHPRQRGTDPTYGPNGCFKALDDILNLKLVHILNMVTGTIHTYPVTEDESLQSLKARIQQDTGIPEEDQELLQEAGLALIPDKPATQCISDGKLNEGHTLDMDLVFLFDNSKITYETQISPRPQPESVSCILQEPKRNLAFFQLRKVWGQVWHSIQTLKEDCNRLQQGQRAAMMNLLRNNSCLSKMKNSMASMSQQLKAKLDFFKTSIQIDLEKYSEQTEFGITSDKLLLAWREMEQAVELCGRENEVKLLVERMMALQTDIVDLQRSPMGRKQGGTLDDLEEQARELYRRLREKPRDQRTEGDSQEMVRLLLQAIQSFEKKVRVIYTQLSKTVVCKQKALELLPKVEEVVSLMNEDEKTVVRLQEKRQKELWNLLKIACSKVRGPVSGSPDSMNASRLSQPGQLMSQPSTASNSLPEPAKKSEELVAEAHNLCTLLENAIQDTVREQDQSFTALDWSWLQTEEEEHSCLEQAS
# Chain of Phosphatidylinositol 4,5-bisphosphate 3-kinase catalytic subunit alpha isoform (Homo sapiens) (P42336 whole entry, canonical isoform): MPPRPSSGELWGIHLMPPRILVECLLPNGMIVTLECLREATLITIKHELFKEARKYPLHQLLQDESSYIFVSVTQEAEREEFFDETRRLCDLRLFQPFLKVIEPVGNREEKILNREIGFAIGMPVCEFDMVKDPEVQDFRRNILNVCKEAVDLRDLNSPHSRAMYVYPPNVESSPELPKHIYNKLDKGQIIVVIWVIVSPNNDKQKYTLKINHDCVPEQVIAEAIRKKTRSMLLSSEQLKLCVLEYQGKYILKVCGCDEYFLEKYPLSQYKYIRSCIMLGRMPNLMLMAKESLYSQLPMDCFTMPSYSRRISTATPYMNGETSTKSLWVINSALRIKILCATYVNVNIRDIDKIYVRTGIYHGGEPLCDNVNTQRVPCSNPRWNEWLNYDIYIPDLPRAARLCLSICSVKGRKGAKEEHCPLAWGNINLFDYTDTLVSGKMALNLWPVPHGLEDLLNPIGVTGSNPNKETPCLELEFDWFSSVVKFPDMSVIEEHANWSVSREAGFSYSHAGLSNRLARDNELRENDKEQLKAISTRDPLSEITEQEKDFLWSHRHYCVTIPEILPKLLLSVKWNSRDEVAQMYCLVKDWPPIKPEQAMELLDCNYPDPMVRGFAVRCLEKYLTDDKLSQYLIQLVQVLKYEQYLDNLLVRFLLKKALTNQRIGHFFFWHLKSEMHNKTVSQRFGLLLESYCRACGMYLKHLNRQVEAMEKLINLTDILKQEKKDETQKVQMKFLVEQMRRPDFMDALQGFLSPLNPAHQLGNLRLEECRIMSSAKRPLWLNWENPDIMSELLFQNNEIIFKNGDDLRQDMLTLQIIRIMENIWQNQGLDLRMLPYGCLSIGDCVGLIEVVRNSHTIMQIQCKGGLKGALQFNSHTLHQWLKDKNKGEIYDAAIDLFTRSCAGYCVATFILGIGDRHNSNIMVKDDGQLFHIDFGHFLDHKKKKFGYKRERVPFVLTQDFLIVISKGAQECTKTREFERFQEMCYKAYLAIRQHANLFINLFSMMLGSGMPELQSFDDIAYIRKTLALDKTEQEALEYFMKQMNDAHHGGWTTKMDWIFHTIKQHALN
# Chain of Megakaryocyte-associated tyrosine-protein kinase (Homo sapiens) (P42679 whole entry): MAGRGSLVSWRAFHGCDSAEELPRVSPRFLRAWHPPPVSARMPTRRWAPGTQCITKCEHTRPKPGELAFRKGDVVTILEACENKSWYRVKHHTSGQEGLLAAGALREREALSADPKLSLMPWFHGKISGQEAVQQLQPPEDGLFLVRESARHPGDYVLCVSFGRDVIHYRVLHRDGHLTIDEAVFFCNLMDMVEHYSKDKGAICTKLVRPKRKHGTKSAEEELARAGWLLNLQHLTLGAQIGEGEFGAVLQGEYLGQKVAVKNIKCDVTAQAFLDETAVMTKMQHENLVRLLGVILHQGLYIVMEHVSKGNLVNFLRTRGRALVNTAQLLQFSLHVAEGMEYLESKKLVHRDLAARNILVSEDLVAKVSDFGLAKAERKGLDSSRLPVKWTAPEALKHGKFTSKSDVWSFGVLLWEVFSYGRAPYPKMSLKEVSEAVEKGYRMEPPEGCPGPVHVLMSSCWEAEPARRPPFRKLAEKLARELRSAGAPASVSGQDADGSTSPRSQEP
# Chain of Phosphatidylinositol 4,5-bisphosphate 3-kinase catalytic subunit alpha isoform (Homo sapiens), P42336 [H1047Y] (P42336 whole entry H1047Y, canonical isoform): as the sequence (P42336 whole entry, canonical isoform) above, with H1047Y counted along it
compound,measurement,setting,value
C=CC(=O)Nc1cc(-n2c(=O)ccc3cnc4ccc(-c5ccc(NS(C)(=O)=O)cc5)cc4c32)ccc1C,Activity,[1],41%
same,Activity,[2],85%
same,inhibition,[3],inactive
same,GI50,[4],5.83 µM
same,Activity,[5],93%
same,Activity,[6],93%
same,Activity,[7],83%
same,Activity,[8],92%
same,Activity,[9],84%
same,Activity,[10],68%
same,Activity,[11],75%
same,Activity,[12],72%
same,Activity,[13],84%
same,Activity,[14],86%
same,Activity,[15],62%
same,Activity,[16],88%
same,Activity,[17],83%
same,Activity,[18],92%
same,IC50,[19],0.138 µM
same,inhibition,[20],Active
same,inhibition,[21],Active
same,Activity,[22],24.3%
same,Activity,[23],87%
same,Activity,[24],64%
same,Activity,[25],20%
same,Activity,[26],98%
same,Activity,[27],94%
same,Activity,[28],79%
same,Activity,[29],79%
same,Activity,[30],92%
same,Activity,[31],0.83
